Results as given in patent publication US9416111B2, “Substituted diazine and triazine spleen tyrosine kinease (Syk) inhibitors” (Merck Sharp & Dohme Corp., priority 2012, dated 2016).
Like-named read-outs stand apart in the source and are kept apart here.

Molecular target: T1, recombinant human GST-SYK (Homo sapiens, UniProt P43405)
T1 construct: purchased Carna Biosciences 08-176
Experiment: Homogeneous Time-Resolved Fluorescence (HTRF) assay for the recombinant human Syk enzyme
Type: biochemical
Conditions: GST-hSYK 5 pM, ATP 25 μM
Experimental: Homogeneous Time-Resolved Fluorescence (HTRF) Assay for the Recombinant Human Syk Enzyme
A recombinant GST-hSYK fusion protein was used to measure potency of compounds to inhibit human Syk activity. The recombinant human GST-SYK (Carna Biosciences #08-176) (5 pM final concentration) was incubated with various concentrations of the inhibitor diluted in DMSO (0.1% final concentration) for 10 minutes at room temperature in 15 mM Tris-HCl (pH 7.5), 0.01% tween 20, 2 mM DTT in 384 well plate format. To initiate the reaction the biotinylated substrate peptide (250 nM final concentration) that contains the phosphorylation site for Syk was added with magnesium (5 mM final concentration) and ATP (25 μM final concentration). Final volume of the reaction was 10 μL. Phosphorylation of the peptide was allowed to proceed for 45′ at room temperature. To quench the reaction and detect the phosphorylated product, 2 nM of a Europium-anti-phosphotyrosine antibody (Perkin Elmer #AD0161) and 70 nM SA-APC (Perkin-Elmer #CR130-100) were added together in 15 mM Tris pH 7.5, 40 mM EDTA, 0.01% tween 20. Final volume of the quenching solution was 10 μL. The resulting HTRF signal was measured after 30 minutes on an EnVision (Perkin-Elmer) reader using a time-resolved fluorescence protocol.

[1] = IC50 rated in classes, read-out: rhSYK Activity

IC50 [1] [nM]	IC50 (values in text, read-out: IC50) [nM]	SMILES
< 100	–	COCC(Nc1ncc(-c2cc(C)cc(Nc3nccc(C(F)(F)F)n3)c2)cn1)C(=O)O (racemic) [Example 2.38, O-methyl-N-[5-(3-methyl-5-{[4-(trifluoromethyl)pyrimidin-2-yl]amino}phenyl)pyrimidin-2-yl]serine]
< 100	–	Cc1cc(Nc2nccc(C(F)(F)F)n2)cc(-c2cnc(NC(CO)C(=O)O)nc2)c1 (racemic) [Example 2.41, N-[5-(3-methyl-5-{[4-(trifluoromethyl)pyrimidin-2-yl]amino}phenyl)pyrimidin-2-yl]serine]
< 100	–	CNC(=O)C1CCCN1c1ncc(-c2cc(C)cc(Nc3nccc(C(F)(F)F)n3)c2)cn1 (racemic) [Example 2.70, N-methyl-1-[5-(3-methyl-5-{[4-(trifluoromethyl)pyrimidin-2-yl]amino}phenyl)pyrimidin-2-yl]prolinamide]
< 100	–	Cc1cc(Nc2nccc(C(F)(F)F)n2)cc(-c2cnc(N3CCCC3C(N)=O)nc2)c1 (racemic) [Example 2.74, 1-[5-(3-methyl-5-{[4-(trifluoromethyl)pyrimidin-2-yl]amino}phenyl)pyrimidin-2-yl]prolinamide]
< 100	0.6	Cc1cc(Nc2nccc(C(F)F)n2)cc(-c2cnc([C@@H](C)[C@H]3CC[C@H](C(=O)O)CC3)nc2)c1 (single isomer, unassigned) [Example 6.1, trans-4-{1-[5-(3-{[4-(difluoromethyl)pyrimidin-2-yl]amino}-5-methylphenyl)pyrimidin-2-yl]ethyl}cyclohexanecarboxylic acid]
< 100	0.3	Cc1cc(Nc2nccc(C(F)F)n2)cc(-c2cnc([C@@H](C)[C@H]3CC[C@H](C(=O)O)CC3)nc2)c1 (single isomer, unassigned) [Example 6.2, trans-4-{1-[5-(3-{[4-(difluoromethyl)pyrimidin-2-yl]amino}-5-methylphenyl)pyrimidin-2-yl]ethyl}cyclohexanecarboxylic acid]
< 100	–	Cc1cc(Nc2nccc(C(F)F)n2)cc(-c2cnc([C@H](C)[C@H]3CC[C@H](C(=O)O)[C@H](C)C3)nc2)c1 (single isomer, unassigned) [Example 7.1]
< 100	< 0.5	Cc1cc(Nc2nccc(C(F)F)n2)cc(-c2cnc([C@H](C)[C@H]3CC[C@H](C(=O)O)[C@H](C)C3)nc2)c1 (single isomer, unassigned) [Example 7.2]
< 100	–	Cc1cc(Nc2nccc(C(F)F)n2)cc(-c2cnc([C@H](C)[C@H]3CC[C@H](C(=O)O)[C@H](C)C3)nc2)c1 (single isomer, unassigned) [Example 7.3]
< 100	0.8	Cc1cc(Nc2nccc(C(F)F)n2)cc(-c2cnc([C@H](C)[C@H]3CC[C@H](C(=O)O)[C@H](C)C3)nc2)c1 (single isomer, unassigned) [Example 7.4]
< 100	0.8	Cc1cc(Nc2nccc(C(F)F)n2)cc(-c2cnc([C@H](C)[C@H]3CC[C@H](C(=O)O)[C@H](C)C3)nc2)c1 (single isomer, unassigned) [Example 7.5]
< 100	0.7	Cc1cc(Nc2nccc(C(F)F)n2)cc(-c2cnc([C@H](C)[C@H]3CC[C@H](C(=O)O)[C@H](C)C3)nc2)c1 (single isomer, unassigned) [Example 7.6]
< 100	1.2	Cc1cc(Nc2nccc(C(F)F)n2)cc(-c2cnc([C@H](C)[C@H]3CC[C@H](C(=O)O)[C@H](C)C3)nc2)c1 (single isomer, unassigned) [Example 7.7]
< 100	–	Cc1cc(Nc2nccc(C(F)F)n2)cc(-c2cnc([C@H](C)[C@H]3CC[C@H](C(=O)O)[C@H](C)C3)nc2)c1 (single isomer, unassigned) [Example 7.8]
< 100	66.2	Cc1cc(Nc2nccc(C(F)(F)F)n2)cc(-c2cncnc2)c1 [Example 1.1, N-(3-methyl-5-pyrimidin-5-ylphenyl)-4-(trifluoromethyl)pyrimidin-2-amine]
